Experiments:
[1] = biological target: T1, farnesoid X receptor (FXR) (Homo sapiens, UniProt Q96RI1); experiment: SPR (Biacore T200); also frontal affinity chromatography KD […]; type: binding
T1 construct: gene NR1H4; human FXR protein (His Tag; Cat: 17624-H07E)
T1 sequence (Q96RI1 1-486): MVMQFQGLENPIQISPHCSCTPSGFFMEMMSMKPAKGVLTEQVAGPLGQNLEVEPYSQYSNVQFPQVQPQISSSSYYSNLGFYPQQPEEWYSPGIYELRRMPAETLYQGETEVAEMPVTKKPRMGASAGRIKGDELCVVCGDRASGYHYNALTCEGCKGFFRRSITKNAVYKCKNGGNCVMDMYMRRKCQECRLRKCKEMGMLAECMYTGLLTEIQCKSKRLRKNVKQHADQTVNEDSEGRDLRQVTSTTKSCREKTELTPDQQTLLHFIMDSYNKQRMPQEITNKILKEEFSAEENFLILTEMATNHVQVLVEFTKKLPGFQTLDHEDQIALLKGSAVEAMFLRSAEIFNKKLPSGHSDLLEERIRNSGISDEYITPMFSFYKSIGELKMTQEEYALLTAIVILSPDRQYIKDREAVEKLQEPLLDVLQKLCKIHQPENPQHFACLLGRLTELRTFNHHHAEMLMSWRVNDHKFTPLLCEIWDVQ

[2] = biological target: T1, farnesoid X receptor (FXR); experiment: retention of standard on immobilized-FXR affinity column ([…]D biochromatography); type: binding

COc1cc(O)c2c(c1)C(=O)c1cc(C)cc(O)c1C2=O [physcion]
Kd [1]: 30.3 µM

O=C1c2cccc(O)c2C(=O)c2c(O)cc(CO)cc21 [aloe-emodin]
retention of standard on immobilized-FXR affinity column (2D biochromatography) [2]: emodin, physcion, aloe-emodin, and TSG exhibited distinct retentions, thereby confirming their strong binding affinities for FXR

Source: PMC12757379 (Frontiers in Pharmacology, 2025)
